The results in this text go back to ChEMBL document CHEMBL4390682, “Purification, structural elucidation, antioxidant capacity and neuroprotective potential of the main polyphenolic compounds contained in Achyrocline satureioides (Lam) D.C. (Compositae)” (Bioorg Med Chem, 2019).

A short description of data set [1]: Antioxidant activity in pH 7.4 PBS assessed as H2O2 oxidation at 50 uM incubated for 10 mins in presence of HRP and H2O2 by UV spectroscopy and HPLC analysis relative to control. Type of data set: functional.
A short description of data set [2]: Antioxidant activity in pH 7.4 PBS assessed as reactivity against GSH at 50 uM incubated for 10 mins in presence of HRP and H2O2 in presence of 40 uM GSH by HPLC-DAD and HPLC-MS/MS analysis relative to control. In kind it is functional.
The species entered for a further data set is Rattus norvegicus. In words: Neuroprotective activity in Sprague-Dawley rat CGN cells assessed as protection against H2O2-induced cytotoxicity by measuring increase in cell viability at 5 to 100 uM pre-incubated for 24 hrs before H2O2 stimulation for 24 hrs by MTT assay. Type of data set: functional.
Data set [3] in a line: Antioxidant activity in pH 7.4 PBS assessed as ABTS+ radical scavenger activity incubated under absence of light for 16 hrs. In kind it is functional.
For a further data set, the system named is Brain. Description: Antioxidant activity in Sprague-Dawley rat brain homogenates assessed as inhibition of lipoperoxidation incubated for 40 mins by fluorescence based assay. In kind it is functional, tissue-based.
Data set [4] is described as follows: GSH reactivity in pH 7.4 PBS assessed as GSH-adduct formation at 50 uM incubated for 10 mins in presence of HRP and H2O2 in presence of 40 uM GSH by HPLC-DAD and HPLC-MS/MS analysis relative to control. In kind it is physicochemical. As to conditions: buffer, pH 7.4, 10 min.
Data set [5] is described as follows: GSH reactivity in pH 7.4 PBS assessed as hydroxylated quercetin formation at 50 uM incubated for 10 mins in presence of HRP and H2O2 in presence of 40 uM GSH by HPLC-DAD and HPLC-MS/MS analysis relative to control. Type of data set: physicochemical. As to conditions: buffer, pH 7.4, 10 min.

Activity calls are given as the source filed them. The calls are words filed in the database; no cut-off is given here.

As a reminder, the EC50 is the concentration needed to bring the measured effect to its halfway point. `O=c1cc(-c2ccc(O)c(O)c2)oc2cc(O)cc(O)c12` [LUTEOLIN]: the Activity in data set [1] stood at 25%. Further, the outcome (in data set [2]; in the data set filed under Rattus norvegicus) was Active. The EC50 was found to be 46 µM in data set [3] and 79 µM in the data set with Brain.
As for `COc1c(-c2ccc(O)c(O)c2)oc2cc(O)cc(O)c2c1=O` [3-O-METHYLQUERCETIN], the Activity in data set [1] was 0%. For the same compound, in data set [2], the result was Active. Further, the result in the data set listed under Rattus norvegicus was inactive. Further, the EC50 in data set [3] is 45 µM; with Brain, 74 µM.
Regarding `O=c1c(O)c(-c2ccc(O)c(O)c2)oc2cc(O)cc(O)c12` [QUERCETIN], the Activity in data set [1] was 90%; in data set [4], “Active”; in data set [5], “Active”. Besides, the result (in data set [2]; in the data set listed under Rattus norvegicus) was Active. In addition, the EC50 in data set [3] turned out to be 9.6 µM; with Brain, 5.7 µM.
In the case of `O=c1c(O[C@@H]2O[C@H](CO)[C@@H](O)[C@H](O)[C@H]2O)c(-c2ccc(O)c(O)c2)oc2cc(O)cc(O)c12` [ISOQUERCETIN], in data set [1], the Activity was determined as 15%. Besides, the outcome (in data set [2]; in the data set filed under Rattus norvegicus) was Active. Besides, the EC50 in data set [3] came out at 152 µM; in the data set on Brain, 94 µM.
